Test results from patent publication US11331273B2, “Film-coated tablet having high chemical stability of active ingredient” (Intercept Pharmaceuticals, Inc., priority 2016, dated 2022).
Several values for one entry are separate records, joined by “and”; a condition that tells them apart may be missing. Equal entries are not always repeated.

Test: Storage stability of obeticholic acid (unmodified) in test tubes: dimer quantified per Test Example 2
Format: physicochemical
Description: Obeticholic acid (unmodified) was weighed out in amounts of 5 mg into test tubes to serve as individual samples.
Test Lubes containing the obeticholic acid (unmodified) prepared in Example 1 were stored under the following conditions. The amounts of obeticholic acid dimer generated before (initial) and after storage were measured in accordance with Test Example 2. • Four weeks (4 W) at 50° C. and 85% RH (open) • Four weeks (4 W) at 60° C. (closed)
The amount of obeticholic acid dimer generated was measured in the same manner described in Test Example 1, with the exception that the sample solution was prepared as follows.
Acetonitrile/water (9/1) was added in an amount of exactly 10 mL to test tubes that had been retrieved from storage, and the contents were ultrasounded to extract the obeticholic acid. Following centrifugation (10 min at 3000 rpm), the supernatant was made into samples for HPLC assay (500 μg/mL obeticholic acid).

Amount of obeticholic acid dimer production (%) (50° C., 85% RH, open, 4 W): 0.83% | Increase (%) in obeticholic acid dimerization from initial product (50° C., 85% RH, open, 4 W): 0.79% | Amount of obeticholic acid dimer production (%) (60° C., closed, 4 W): 0.81% | Increase (%) in obeticholic acid dimerization from initial product (60° C., closed, 4 W): 0.77% and 0.78% | Amount of obeticholic acid dimer production (%) (Initial): 0.04%
Structure (SMILES): CC[C@H]1[C@@H](O)[C@@H]2[C@H](CC[C@]3(C)[C@@H]([C@H](C)CCC(=O)O)CC[C@@H]23)[C@@]2(C)CC[C@@H](O)C[C@@H]12 [Comparative Example 3, 3α,7α-dihydroxy-6α-ethyl-5β-cholan-24-oic acid]
